Tests used:
[1] = tested on: secretion of acidic gastric juice in dogs provided with a Heidenhain pouch and whose gastric secretion is stimulated with histamine; assay: Inhibition of histamine-stimulated gastric acid secretion in Heidenhain pouch dogs, intravenous injection; type: in vivo, dog; settings: for biological activity (inhibition of the secretion of acidic gastric juice), in words: dog, histamine-stimulated gastric secretion; for biological potency (amount causing a 50-70% inhibition of acid secretion): intravenous injection, dog with Heidenhain pouch, secretion stimulated to 60-80% of maximum by histamine infusion, expressed as a range of doses; for biological activity, inhibition of gastric secretion: single determination, single intravenous injection
Experimental: This test is used to determine the biological potency of the products, which is defined as the amount of the products which, on administration by intravenous injection to a dog provided with a Heidenhain pouch and whose secretion of gastric acid is stimulated to 60-80- % of the maximum level of secretion by an infusion of histamine, causes a 50-70% inhibition of that acid secretion. Some variation in the biological potency of a particular sample is found if it is measured in different dogs or on different occasions and so the result is best expressed as a range of doses. The physiological effect of inhibiting the secretion of acidic gastric juice is of value in the treatment of duodenal ulcers, and under the test conditions, no serious toxic effects were observed. The polypeptides of the invention also show ulcer healing properties in a standard test.
In the case of each process involving the use of a chromatography column, the eluate was collected in fractions consisting of a defined number of drops using an Ultrorac LKB 7,000 fraction collector (LKB Instruments Ltd., Croydon, Surrey, U.K.) and these fractions assayed for peptide material by measuring the U.V. absorption at 280 mμ. The material was then collected in fractions and the material assayed for biological activity as follows:
Dogs were prepared with separated denervated fundic pouches, and a subcutaneous infusion of histamine was used to stimulate gastric secretion to approximately 60-80% of the maximal rate [usually an infusion of a solution of 600 μg. of histamine (expressed as base) in 0.48 ml. per hour is adequate]. A known amount of test material was dissolved in isotonic saline and, when the dog was secreting gastric juice at a steady rate, a single intravenous injection of this material was administered.
The biological potency may be determined from the results obtained at several different doses.

[2] = Water solubility of the isolated lyophilized polypeptide; type: physicochemical; settings: lyophilized white acidic polypeptide

material in fractions 38-52: peptide cleaved from β-urogastrone by AM protease; ratios Glu 1, Leu 1, Lys 1, Trp 2, Arg 1; N-terminal lysine (KWWELR; Epidermal growth factor; UniProt P01133 1018-1023, looked up, fragment)
biological activity (inhibition of the secretion of acidic gastric juice), in words [1]: biologically inactive

polypeptide having 47 amino-acid residues: 47-residue single-chain polypeptide with three disulphide bonds obtained by incubating β-urogastrone with AM protease (NSDSECPLSHDGYCLHDGVCMYIEALDKYACNCVVGYIGERCQYRDL; Epidermal growth factor; UniProt P01133 971-1017, looked up, fragment)
solubility in water [2]: water soluble | biological activity (inhibition of the secretion of acidic gastric juice), in words [1]: biologically active | biological potency (amount causing a 50-70% inhibition of acid secretion) [1]: 0.2 to 1 μg./kg. | biological activity, inhibition of gastric secretion ([1]; dose equivalent to 0.7 μg./kg. of starting material): 30%

Example 2: 46-residue single-chain polypeptide with three internal disulphide bonds, from the 47-residue polypeptide by carboxypeptidase A cleavage of C-terminal leucine (NSDSECPLSHDGYCLHDGVCMYIEALDKYACNCVVGYIGERCQYRD; Epidermal growth factor; UniProt P01133 971-1016, looked up, fragment)
solubility in water [2]: water soluble | biological activity (inhibition of the secretion of acidic gastric juice), in words [1]: biologically active | biological activity (inhibition of the secretion of acidic gastric juice), in words ([1]; listed as polypeptide of the invention): potent inhibitors | biological potency (amount causing a 50-70% inhibition of acid secretion) [1]: 0.2 to 1 μg./kg. | biological activity, inhibition of gastric secretion ([1]; dose equivalent to 0.6 μg./kg. of starting material): 42%

3: polypeptide of Example 2 in which the cystine residues had been reduced to cysteine residues (NSDSECPLSHDGYCLHDGVCMYIEALDKYACNCVVGYIGERCQYRD; Epidermal growth factor cystines reduced; UniProt P01133 971-1016, looked up, fragment) [Example 3]
biological activity (inhibition of the secretion of acidic gastric juice), in words [1]: potent inhibitors
